Entries after “also recorded” stand apart in the source; their conditions may differ.
Columns and labels:
blood LH = assay: Suppression of blood LH in castrated monkeys; format: in vivo, cynomolgus monkeys (Macaca fascicularis); conditions: castrated male cynomolgus monkeys
Description: Suppression of blood LH in castrated monkeys
5-(N-Benzyl-N-methylaminomethyl)-1-(2,6-difluorobenzyl)-6-[4-(3-methoxyureido)phenyl]-3-phenythieno[2,3-d]pyrimidine-2,4(1H,3H)-dione hydrochloride was orally administered to castrated male cynomolgus monkeys (Macaca fascicularis), and blood LH was quantified. The male cynomolgus monkeys, used at 4 years 9 months to 6 years 3 months of age at time of experimentation, had been castrated more than 3 months prior to the examination. Test animals [n=3] were given 30 mg/kg (3 ml/kg) of 5-(N-benzyl-N-methylaminomethyl)-1-(2,6-difluorobenzyl)-6-[4-(3-methoxyureido)phenyl]-3-phenylthieno[2,3-d]pyrimidine-2,4(1H,3H)-dione hydrochloride suspended in 0.5% methylcellulose at a final concentration of 1% by oral administration, and control test animals [n=2] were given 3 ml/kg of the 0.5% methylcellulose dispersant alone by oral administration. At 24 hours and immediately before administration and at 2, 4, 6, 8, 24, and 48 hours after administration, blood was collected for heparinized plasma samples via the femoral vein and immediately stored under freezing conditions.
Plasma LH concentrations were determined by a bioassay using mouse testicular cells. The testicular cells were collected from male BALB/c mice (8 to 9 weeks of age) and washed three times with 1 ml of Dulbecco's modified Eagle medium (DMEM-H) containing 20 mM HEPES and 0.2% BSA per testis. After incubation at 37° C. for 1 hour, the cells were passed through a nylon mesh (70 μm) and dispensed at 8×10^5 cells/tube. After the cells were washed twice with 0.4 ml of DMEM-H, 0.4 ml of a DMEM-H solution containing either equine LH (Sigma), as the standard LH, or monkey plasma, finally diluted up to 300 fold, as the test sample, was added, followed by a reaction at 37° C. for 2 hours. The testosterone concentration in the culture supernatant was determined by a radioimmunoassay (CIS Diagnostics), and the LH concentration in the test monkey plasma was calculated from the standard curve for the standard equine LH. […]

LH, FSH concentrations = conditions: patients of Alzheimer's disease, clinical test; cited from earlier work

Structure (SMILES)	blood LH concentration relative to the value immediately before administration (blood LH; 30 mg/kg oral in 0.5% methylcellulose, in 24 hours after administration, n=3)	blood LH concentration at 48 hours after administration (blood LH; 30 mg/kg oral, 48 hours after administration)	effect on blood LH concentration (in words) (blood LH; 30 mg/kg oral, hydrochloride, 30 mg/kg)	LH, FSH concentrations (LH, FSH concentrations)	progress of Alzheimer's disease (LH, FSH concentrations)
CONC(=O)Nc1ccc(-c2sc3c(c2CN(C)Cc2ccccc2)c(=O)n(-c2ccccc2)c(=O)n3Cc2c(F)cccc2F)cc1.Cl [5-(N-benzyl-N-methylaminomethyl)-1-(2,6-difluorobenzyl)-6-[4-(3-methoxyureido)phenyl]-3-phenylthieno[2,3-d]pyrimidine-2,4(1H,3H)-dione hydrochloride]	≤ 20%	re-elevation of the blood LH concentration was noted	rapid fall beginning immediately after administration; also recorded: significant decreasing effect on blood LH concentration	–	–
CCNC(=O)[C@@H]1CCCN1C(=O)[C@H](CCCNC(=N)N)NC(=O)[C@H](CC(C)C)NC(=O)[C@@H](CC(C)C)NC(=O)[C@H](Cc1ccc(O)cc1)NC(=O)[C@H](CO)NC(=O)[C@H](Cc1c[nH]c2ccccc12)NC(=O)[C@H](Cc1c[nH]cn1)NC(=O)[C@@H]1CCC(=O)N1 [Leuplin]	–	–	–	lowers the LH, FSH concentrations	inhibits the progress of Alzheimer's disease

From patent publication US20030134863A1, “Preventives/remedies for alzheimer's disease” (priority 2000, published 2003)
